This assay has as its system CD2F1 mice, L1210 leukemia ip, survival T/C. Kind of assay: NCI In Vivo Anticancer Drug Screen. Data for tumor model L1210 Leukemia (intraperitoneal) in CD2F1 (CDF1) mice. The note with it: higher = longer survival. The method, boiled down:
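Read-out first: treated-group measurement over vehicle-control measurement, expressed as a ratio. Animals bore a transplanted tumor line and were dosed with compound or vehicle.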

Setting [1] is: endpoint: mean survival time, dose: 100.0 mg/kg/injection, schedule: Q01DX009 (ip), vehicle: saline with Tween-80.
[2] abbreviates: endpoint: mean survival time, dose: 100.0 mg/kg/injection, schedule: Q04DX003 (ip), vehicle: saline with Tween-80.
Where [3] appears, read: endpoint: mean survival time, dose: 200.0 mg/kg/injection, schedule: Q01DX009 (ip), vehicle: saline with Tween-80.
Setting [4] is: endpoint: mean survival time, dose: 200.0 mg/kg/injection, schedule: Q04DX003 (ip), vehicle: saline with Tween-80.
Setting [5] is: endpoint: mean survival time, dose: 400.0 mg/kg/injection, schedule: Q01DX009 (ip), vehicle: saline with Tween-80.
Where [6] appears, read: endpoint: mean survival time, dose: 400.0 mg/kg/injection, schedule: Q04DX003 (ip), vehicle: saline with Tween-80.
Setting [7] is: endpoint: mean survival time, dose: 12.5 mg/kg/injection, schedule: Q01DX005 (ip), vehicle: water.
Setting [8] is: endpoint: mean survival time, dose: 25.0 mg/kg/injection, schedule: Q01DX005 (ip), vehicle: water.
Setting [9] is: endpoint: mean survival time, dose: 50.0 mg/kg/injection, schedule: Q01DX005 (ip), vehicle: water.
Setting [10] is: endpoint: mean survival time, dose: 100.0 mg/kg/injection, schedule: Q01DX005 (ip), vehicle: water.
Where [11] appears, read: endpoint: mean survival time, dose: 100.0 mg/kg/injection, schedule: Q04DX002 (ip), vehicle: saline with Tween-80.
Where [12] appears, read: endpoint: mean survival time, dose: 100.0 mg/kg/injection, schedule: Q01DX001 (ip), vehicle: saline with Tween-80.
Where [13] appears, read: endpoint: mean survival time, dose: 100.0 mg/kg/injection, schedule: Q04DX003 (ip), vehicle: saline.
Where [14] appears, read: endpoint: mean survival time, dose: 200.0 mg/kg/injection, schedule: Q04DX003 (ip), vehicle: saline.
[15] abbreviates: endpoint: mean survival time, dose: 400.0 mg/kg/injection, schedule: Q04DX003 (ip), vehicle: saline.

Each structure is given as a SMILES string. Inconclusive results and toxic doses are left out.

On to `CC(=O)Nc1ccc(C)c(Cl)c1`, for which the T/C is 96 % of control under setting [1]; 101 % of control under setting [2]; 94 % of control under setting [3]; 103 % of control under setting [4]; 88 % of control under setting [5]; 101 % of control under setting [6].

Turning to `CCCC(=O)Nc1ncnc2c1[nH]c(=O)n2C1OC2COP(=O)(O)OC2C1OC(=O)CCC` (stereo not given), the T/C reads like this: (endpoint: mean survival time, dose: 6.25 mg/kg/injection, schedule: Q01DX005 (ip), vehicle: water) 97 % of control; under setting [7], 93 % of control; under setting [8], 97 % of control; under setting [9], 97 % of control; under setting [10], 89 % of control.

`N#C/C(=C\C1CCCCC1Cl)C1CCC([N+](=O)[O-])CC1` (stereo not given): the T/C reads like this: under setting [11], 91 % of control; (endpoint: mean survival time, dose: 400.0 mg/kg/injection, schedule: Q04DX002 (ip), vehicle: saline with Tween-80) 87 % of control.

As to `O=C1NC(=O)C(c2ccccc2)(C2CCCC2)N1` (stereo not given), the T/C was 104 % of control (endpoint: mean survival time, dose: 50.0 mg/kg/injection, schedule: Q04DX003 (ip), vehicle: Klucel (hydroxypropylcellulose) (HPC)); 98 % of control (endpoint: mean survival time, dose: 100.0 mg/kg/injection, schedule: Q04DX003 (ip), vehicle: Klucel (hydroxypropylcellulose) (HPC)); 95 % of control (endpoint: mean survival time, dose: 200.0 mg/kg/injection, schedule: Q04DX003 (ip), vehicle: Klucel (hydroxypropylcellulose) (HPC)).

In the case of `Nc1ccc(-n2nc3ccc4ccccc4c3n2)cc1`, the T/C is, setting by setting: (endpoint: mean survival time, dose: 25.0 mg/kg/injection, schedule: Q04DX002 (ip), vehicle: saline with Tween-80) 98 % of control; (endpoint: mean survival time, dose: 50.0 mg/kg/injection, schedule: Q04DX002 (ip), vehicle: saline with Tween-80) 98 % of control; under setting [11], 103 % of control.

For the compound `COC(=O)C(Cl)c1ccccc1` (stereo not given), the T/C reads like this: under setting [1], 95 % of control; under setting [3], 100 % of control; under setting [5], 97 % of control.

As for `CNC(=O)Oc1cccc(NC(=O)OC(C)C(C)C)c1` (stereo not given), the T/C reads like this: under setting [2], 98 % of control; under setting [4], 90 % of control; under setting [6], 96 % of control.

For `O=[N+]([O-])O.[Zn+2].c1ccncc1`, the T/C (endpoint: mean survival time, dose: 75.0 mg/kg/injection, schedule: Q01DX001 (ip), vehicle: saline) is 108 % of control.

Turning to `COc1ccc2[nH]c3c(c2c1)CSc1ccccc1-3`, the T/C reads like this: (endpoint: mean survival time, dose: 100.0 mg/kg/injection, schedule: Q04DX003 (ip), vehicle: acetone) 94 % of control; (endpoint: mean survival time, dose: 200.0 mg/kg/injection, schedule: Q04DX003 (ip), vehicle: acetone) 105 % of control; (endpoint: mean survival time, dose: 400.0 mg/kg/injection, schedule: Q04DX003 (ip), vehicle: acetone) 100 % of control.

In the case of `Fc1ccc(NC2(c3nnnn3C3CCCCC3)CCN(Cc3ccccc3)CC2)cc1`, the T/C runs as follows: under setting [12], 95 % of control; (endpoint: mean survival time, dose: 200.0 mg/kg/injection, schedule: Q01DX001 (ip), vehicle: saline with Tween-80) 102 % of control; (endpoint: mean survival time, dose: 400.0 mg/kg/injection, schedule: Q01DX001 (ip), vehicle: saline with Tween-80) 101 % of control.

With `COc1nc(NC2OC(CO)C(O)C(O)C2O)c(I)c(=O)[nH]1` (stereo not given), the T/C was 109 % of control (endpoint: median survival time, dose: 12.5 mg/kg/injection, schedule: Q01DX005 (ip), vehicle: saline); 107 % of control (endpoint: median survival time, dose: 25.0 mg/kg/injection, schedule: Q01DX005 (ip), vehicle: saline); 100 % of control (endpoint: median survival time, dose: 50.0 mg/kg/injection, schedule: Q01DX005 (ip), vehicle: saline); 101 % of control (endpoint: median survival time, dose: 100.0 mg/kg/injection, schedule: Q01DX005 (ip), vehicle: saline); 100 % of control (endpoint: median survival time, dose: 200.0 mg/kg/injection, schedule: Q01DX005 (ip), vehicle: saline).

For `CCCC(=O)c1c(C)cc(C)cc1C`, the T/C (endpoint: mean survival time, dose: 100.0 mg/kg/injection, schedule: Q04DX003 (ip), vehicle: other) is 98 % of control; the T/C (endpoint: mean survival time, dose: 200.0 mg/kg/injection, schedule: Q04DX003 (ip), vehicle: other) was 104 % of control; the T/C (endpoint: mean survival time, dose: 400.0 mg/kg/injection, schedule: Q04DX003 (ip), vehicle: other) was 98 % of control.

Regarding `O=C(O)C1C2CC3C(OC(=O)C31)C2Br` (stereo not given), the T/C runs as follows: under setting [13], 105 % of control; under setting [14], 96 % of control; under setting [15], 102 % of control.

Regarding `c1ccc(-c2cc(-c3ccccc3)on2)cc1`, the T/C is, setting by setting: under setting [1], 96 % of control; under setting [2], 93 % of control; under setting [3], 94 % of control; under setting [4], 94 % of control; under setting [5], 97 % of control; under setting [6], 98 % of control.

As for `O=C1NC(=O)C([P+](c2ccccc2)(c2ccccc2)c2ccccc2)C1=O` (stereo not given), the T/C runs as follows: under setting [2], 102 % of control; under setting [4], 102 % of control; under setting [6], 98 % of control.

For the compound `Nc1ccc(S(=O)(=O)N(CCO)CCO)cc1[N+](=O)[O-]`, the T/C under setting [2] was 96 % of control, the T/C under setting [4] was 98 % of control and the T/C under setting [6] was 95 % of control.

For `O=c1[nH]cnc2c1ncn2C1CC(CO)C(O)OC1O` (stereo not given), the T/C is, setting by setting: (endpoint: mean survival time, dose: 100.0 mg/kg/injection, schedule: Q04DX002 (ip), vehicle: saline) 164 % of control; (endpoint: mean survival time, dose: 200.0 mg/kg/injection, schedule: Q04DX002 (ip), vehicle: saline) 188 % of control.

On to `Cc1ccc(S(=O)(=O)N(CCCc2c(C)nc(N)nc2Cl)c2ccccc2)cc1`, for which the T/C was 100 % of control (endpoint: mean survival time, dose: 50.0 mg/kg/injection, schedule: Q01DX001 (ip), vehicle: Klucel (hydroxypropylcellulose) (HPC)); 104 % of control (endpoint: mean survival time, dose: 100.0 mg/kg/injection, schedule: Q01DX001 (ip), vehicle: Klucel (hydroxypropylcellulose) (HPC)); 96 % of control (endpoint: mean survival time, dose: 200.0 mg/kg/injection, schedule: Q01DX001 (ip), vehicle: Klucel (hydroxypropylcellulose) (HPC)).

In the case of `COc1cccc(CN2CCN(N=O)CC2)c1`, the T/C is, setting by setting: (endpoint: mean survival time, dose: 12.5 mg/kg/injection, schedule: Q01DX009 (ip), vehicle: Klucel (hydroxypropylcellulose) (HPC)) 98 % of control; (endpoint: mean survival time, dose: 25.0 mg/kg/injection, schedule: Q01DX009 (ip), vehicle: Klucel (hydroxypropylcellulose) (HPC)) 93 % of control; (endpoint: mean survival time, dose: 50.0 mg/kg/injection, schedule: Q01DX009 (ip), vehicle: Klucel (hydroxypropylcellulose) (HPC)) 103 % of control; (endpoint: mean survival time, dose: 100.0 mg/kg/injection, schedule: Q01DX009 (ip), vehicle: Klucel (hydroxypropylcellulose) (HPC)) 103 % of control; (endpoint: mean survival time, dose: 200.0 mg/kg/injection, schedule: Q01DX009 (ip), vehicle: Klucel (hydroxypropylcellulose) (HPC)) 101 % of control; (endpoint: mean survival time, dose: 400.0 mg/kg/injection, schedule: Q01DX009 (ip), vehicle: Klucel (hydroxypropylcellulose) (HPC)) 93 % of control.

`CCCCCCCCC(Sc1n[nH]c(=O)[nH]c1=O)C(=O)OCC` (stereo not given): the T/C (endpoint: mean survival time, dose: 12.5 mg/kg/injection, schedule: Q01DX005 (ip), vehicle: distilled water + Tween-80) is 101 % of control; the T/C (endpoint: mean survival time, dose: 25.0 mg/kg/injection, schedule: Q01DX005 (ip), vehicle: distilled water + Tween-80) was 95 % of control; the T/C (endpoint: mean survival time, dose: 50.0 mg/kg/injection, schedule: Q01DX005 (ip), vehicle: distilled water + Tween-80) is 95 % of control; the T/C (endpoint: mean survival time, dose: 100.0 mg/kg/injection, schedule: Q01DX005 (ip), vehicle: distilled water + Tween-80) is 100 % of control; the T/C (endpoint: mean survival time, dose: 200.0 mg/kg/injection, schedule: Q01DX005 (ip), vehicle: distilled water + Tween-80) was 95 % of control.

As for `CCC(Cc1ccccc1)C(=O)O` (stereo not given), the T/C was 108 % of control under setting [13], 97 % of control under setting [14] and 97 % of control under setting [15].

Take `CC/C(=C/c1ccc2c(c1)OCO2)[N+](=O)[O-]`: under setting [12], the T/C is 105 % of control.

`O=C(c1ccccc1)N(CCCCl)C(=O)N(CCCCl)C(=O)c1ccccc1`: the T/C is 105 % of control under setting [2], 100 % of control under setting [4] and 108 % of control under setting [6].

`O=c1[nH]c(=O)n(C2CC(O)C(CO)O2)cc1S` (stereo not given): the T/C was 107 % of control under setting [7]; 117 % of control under setting [8]; 112 % of control under setting [9]; 122 % of control under setting [10]; 121 % of control (endpoint: mean survival time, dose: 133.0 mg/kg/injection, schedule: Q01DX005 (ip), vehicle: water); 111 % of control (endpoint: mean survival time, dose: 200.0 mg/kg/injection, schedule: Q01DX005 (ip), vehicle: water). For the setting “endpoint: mean survival time, dose: 300.0 mg/kg/injection, schedule: Q01DX005 (ip), vehicle: water”, the T/C was 115 % of control.

The values above are taken from PubChem BioAssay AID256 (DTP/NCI, 2004).
